# In a melting point compilation (Tetko et al.; mined from patent text by program, amines drawn as free bases though some values may be those of a salt):
row,SMILES,melting point
1,CCCn1c(=O)c2[nH]c(C3CCCC3)nc2n(CCc2ccc(NC(=O)C(C)C)cc2)c1=O,> 270 °C
2,CCCSc1nc(NC2CC2c2cccc(N)c2)c2nnn(C3CC(O)C(O)C3O)c2n1 (stereo not drawn),105 to 107 °C
3,Cc1cc(C)c(S(=O)(=O)NC(COc2ccnc3ccccc23)C(F)(F)F)c(C)c1 (stereo not drawn),211 to 212 °C
4,CCCCc1ccc2c(c1)CC(C(=O)OCC)=NN2,150 to 152 °C
5,CC(=O)Nc1ccc(Sc2ccc(F)cc2)cc1,140 to 141 °C
6,CCCCCCCCCCCCCCCCCCOc1cc(OCc2ccccc2)cc(C(=O)N(CC(=O)O)CC(=O)O)c1,93 to 95 °C
7,CN1C(=O)c2cscc2N(Cc2ccccc2)c2ccccc21,152 to 153 °C
8,CN1CCN(Cc2ccc(C(=O)O)cc2)CC1,310 to 312 °C
9,O=C(O)CCC(=O)c1cccc(-n2ccnc2)c1,140 to 142 °C
10,CCCC1(C)C(C#N)C(=O)NC(=O)C1C#N (stereo not drawn),204 to 205 °C
11,CC(C)N(C(=O)n1oc(=O)[nH]c1=O)c1ccc(F)cc1,94 to 95 °C
12,CCOC(=O)c1cc2c3cc(Br)ccc3ncn2c1,183 to 185 °C
13,CC(=O)N1CCc2ccc(N)cc2C1,98 to 100 °C
14,CC(C)C(=O)Nc1cc([N+](=O)[O-])c(Sc2cccc3cnccc23)cc1N,219 to 221 °C
15,CCc1nc2cc(F)ccc2n1C1CC2CCC(C1)N2CCCSc1ccc(F)cc1 (stereo not drawn),127 to 128 °C
16,CCc1ccc(-c2nc3ccccc3[nH]2)nc1,172 to 173 °C
17,COc1ccc(C[C@H]2NC(=O)O[C@H]2c2ccc(F)cc2)cc1 (racemic),125 to 126 °C
18,CC(C)(C)OC(=O)C[C@H](NC(=O)CNC(=O)c1csc(NC(=O)NCc2ccccc2)n1)C(=O)NCc1ccccn1,108 °C
19,CNC(=O)c1ccccc1Nc1nc(Nc2ccc3c(c2)CCCC(=O)N3C)ncc1Cl,244 to 246 °C
20,Cc1ccc2c(c1)C(NC(=O)CCCCl)c1ccccc1CS2(=O)=O (stereo not drawn),203 to 204 °C
21,N#C[C@H](O)c1cccc(Oc2ccccc2)n1,95 °C
22,COc1ccc(C(=O)CN2CCc3cc(OCc4ccccc4)c(OC)cc3C2)cc1OC,126 to 127 °C
23,O=C(c1cccc(C(F)(F)F)c1)N(CCCCc1cccnc1)C1=Nc2cccc3cccc1c23,122 to 123 °C
24,COc1cc(C(C)=O)ccc1OCCCN1CCC(c2nsc3ccccc23)CC1,93 to 95 °C
25,COc1ccc2nc(SC3CCCc4ccc(O)nc43)[nH]c2c1 (stereo not drawn),217 to 218 °C

row,SMILES,melting point
1,CS(=O)c1ccc2nc(NC(=N)N)nc(-c3ccccc3)c2c1 (stereo not drawn),175 to 180 °C
2,CCC1SC(=O)N(Cc2ccc(N)cc2)N=C1c1ccc(OC)c(OC)c1 (stereo not drawn),105 °C
3,O=C(O)CCc1conc1-c1ccc(C(F)(F)F)cc1,173 to 174 °C
4,CC(=O)OCCOC(=O)C1=C(C)Nc2nc(N3CCOCC3)nc(N3CCOCC3)c2C1c1cccnc1 (stereo not drawn),170 °C
5,CCOCCOc1cc(C(O)C#Cc2ccc(C(=O)O)c(O)c2)cc2c1C(C)(C)CCC2(C)C (stereo not drawn),120 °C
6,CC(=O)O[C@H]1[C@H](OC(C)=O)[C@@H](CCl)OC[C@@H]1OC(C)=O,129 to 131 °C
7,COc1ccc(N2CCN(c3c(C)c(C)c4c(c3C)CC(C)(Cn3ccnc3C)O4)CC2)cc1 (stereo not drawn),86 to 90 °C
8,CCCCCCNC(=O)c1ccc(N2N=C(CCC)C(=CNc3ccccc3CC)C2=O)cc1,46.7 °C
9,COc1nc(C(=O)O)ccc1CN1CC1C#N (stereo not drawn),96 to 97 °C
10,O=C(COc1ccc(Cl)cc1Cl)C(=C1SCCCN1Cl)[N+](=O)[O-],103 to 105 °C
11,COC(=O)C1CCc2onc(-c3ccc(Cl)cc3)c2CC1 (stereo not drawn),70 to 71 °C
12,CC1C(C/C=C/c2ccccc2)C(=O)N(Cc2ccccc2)c2ccccc2N1C(=O)CN1C(=O)c2ccccc2C1=O (stereo not drawn),262 to 264 °C
13,CNC1=NS(=O)(=O)N=C1NCCCCc1ccc(CN(C)C)o1,152 to 153 °C
14,CNC(=O)NC(=O)C(CC1CCCC1O)c1ccc(Cl)c(Cl)c1 (stereo not drawn),62 to 64 °C
15,CCC(CC)c1nn(-c2ccc(C(F)(F)F)cn2)cc1CCCOc1c(C)cccc1CC(=O)O,125 to 126 °C
16,Cc1ccc(S(=O)(=O)N(C)c2cc(C)cc([N+](=O)[O-])c2N)cc1,208 °C
17,COc1ccc(CSc2cccc(N)c2)cc1,85 to 86 °C
18,CC(C)(C)Nc1c(NCc2ccc(Cl)c(Cl)c2)c(=O)c1=O,302 to 303 °C
19,CC1(C)CCc2c(sc3cc(OS(=O)(=O)Cc4ccccc4OC(F)(F)F)ccc3c2=O)C1,249 °C
20,CCCCc1nc2cscc2[nH]1,118 °C
21,CCC1=NNC(C)=C(C(=O)OC(C)C)C1c1cccc([N+](=O)[O-])c1 (stereo not drawn),108 °C
22,CN(C[C@H]1CC[C@H](C(=O)O)CC1)c1ncc(Br)cn1,111 to 113 °C
23,Cc1cn(N)c(=O)n1C,115 to 119 °C
24,CCOC(=O)Cc1ccc(NC(=O)C(Cc2ccccc2)NS(=O)(=O)c2ccc(Cl)cc2)cc1 (racemic),148 to 150 °C
25,CCOC(=O)c1ccc(OCc2ccc(C3CCN(C(=O)OC(C)(C)C)CC3)cn2)cc1F,92 to 95 °C

row,SMILES,melting point
1,CCOC(=O)c1nsc(=O)o1,49 °C
2,CCCCCCCCCCC/C=C\c1c[nH]c(C(=O)OC)c1,51 to 52 °C
3,Nc1ccc(-n2ccn(CCCC3CCCCC3)c2=O)cc1,83 to 85 °C
4,COc1nnc(-c2cc3c([nH]c2=O)CCN(Cc2ccccc2)C3)o1,176 to 178 °C
5,COc1ccc(Cn2cnc3c(-c4ccco4)nc(C(C)=O)nc32)cc1,166 to 167 °C
6,CC1(C)CCC(C)(C)c2cc(-c3cc(-c4ccc(C(=O)O)cc4)ccc3CC(O)CO)ccc21 (stereo not drawn),145 °C
7,CC(=O)C(C)S(=O)(=O)c1ccc(C=C(C)c2ccc3c(c2)C(C)(C)CCC3(C)C)cc1 (stereo not drawn),139 to 141 °C
8,CNCC(C)C1(c2ccccc2)C=CCC=C1 (stereo not drawn),> 250 °C
9,CCOC(=O)C=Cc1cc([N+](=O)[O-])cc2c1CCCC2,95 to 96 °C
10,N=C(NNC(=O)c1ccccc1)C(Cl)(Cl)Cl,170 to 172 °C
11,Cc1ccc(NC(=O)N2C(=O)C3(CCCCC3)NC23CCCCC3)cc1,136 to 138 °C
12,CC(=O)Nc1ccsc1C(=O)c1ccccc1,93 to 95 °C
13,COc1ccc2c(c1)N(c1ccc(F)cc1)C(=O)C2NC(=O)c1cc2ccccc2cn1 (stereo not drawn),219 to 220 °C
14,CC(=O)CC(=O)CCCCCCCC(=O)CC(C)=O,73 to 74 °C
15,CCCCC(CC)COC(=O)C(C#N)=C1C=C(C)N(CCCC)C(C)=C1 (stereo not drawn),69 to 70 °C
16,O=C1NC(=O)C(c2ccc(Cl)o2)O1 (stereo not drawn),112 to 114 °C
17,CCOC(=O)c1ccc(-c2ccc(-c3ccccc3OCOC)c(-c3ccc4c(c3)C(C)(C)CCC4(C)C)c2)cc1,132 to 135 °C
18,O=C(Nc1ccc2ccccc2c1-c1c(P(=O)(c2ccccc2)c2ccccc2)ccc2ccccc12)c1ccccc1,247 °C
19,O=C(Cl)C(=O)c1cn(Cc2ccc(Cl)cc2)c2ccccc12,151 to 153 °C
20,CC1(C)CC(=Cc2nc3cc(O)ccc3o2)CC(C)(C)C1,160 to 162 °C
21,COC1=C(OC)C(=O)C2=C(CC(CCCCCCCCNC(C)=O)C2)C1=O,93 to 96 °C
22,COc1cc(-c2ccc(O)c(C(C)(C)C)c2)cc(C=C2SC(N(C)C)=NC2=O)c1O,272 to 274 °C
23,COc1cc2c(cc1S(=O)(=O)c1cccs1)[C@@H](N1CCCC1=O)[C@H](O)C(C)(C)O2 (relative stereo),135 to 136 °C
24,O=C(Nc1ccc(F)cc1)Nc1cccc(OCc2ccccc2)c1,187 to 189 °C
25,N#Cc1ccc(Nc2nc(N)nc(Cc3c(Cl)ccc4[nH]ccc34)n2)cc1,267 to 268 °C

row,SMILES,melting point
1,CN(C)CCN(C)CC(=O)N1c2ccccc2N(C)C(=O)c2cnc(-c3ccccc3)nc21,125 °C
2,CC(C)(C)OC(=O)CN(Cc1cccc(Cl)c1)S(=O)(=O)c1ccc2c(Cl)cnc(Cl)c2c1,141 to 143 °C
3,N#CCCNC(=O)c1cccc(-c2cccn3nc(Nc4cccc(C(F)(F)F)c4)nc23)c1,214 to 215 °C
4,COc1ccc(Nc2ccccc2C(C)=C(Cl)Cl)cc1OC,94 to 96 °C
5,CN1C(=O)C2(COc3cc4c(cc32)OCCO4)c2c(-c3cn[nH]c3)cccc21 (stereo not drawn),250 to 251 °C
6,CCN(CCO)CCN1C(=O)c2ccccc2C1=O,56 to 58 °C
7,CCOC(=O)/C=C/c1nc(COc2ccc(COc3nn(-c4ccccc4)cc3/C=C\c3csc(CC)n3)cc2OC)c(C)o1,95 to 96 °C
8,O=c1oc2ccccc2cc1S(=O)(=O)Cc1ccc(Cl)cc1,195 to 196 °C
9,CN1CC(CCCl)c2nc3ccccc3n2C1=O (stereo not drawn),88 to 91 °C
10,CC1NC(=O)NN=C1c1ccc(Cl)c(N)c1 (stereo not drawn),226 to 228 °C
11,COC1CN(C(=O)c2cnn(C)c2C(=O)Nc2ccn3nc(-c4ccccc4)nc3c2)C1,269 to 270 °C
12,Cc1oc2c(C)c(C)c(NC(=O)c3ccccc3)c(C)c2c1-c1ccc(C(C)C)cc1,225 to 227 °C
13,O=C1C(=Cc2ccc(Cl)s2)CCc2cc(OCCn3ccnc3)ccc21,143 to 144 °C
14,COC(=O)c1ccc(CO)cc1N,100 to 102 °C
15,C/C(=N\OCCOc1ccc(C(=O)O)cc1Cl)c1ccc(C(C)(C)C)cc1,167 to 169 °C
16,CSc1ccc2cc[nH]c2c1,91 to 92 °C
17,CC(C)(C)OC(=O)Nc1ccccc1NC(=O)c1ccc(C#N)nc1,183 to 184 °C
18,CCOCc1cc(OC)c(-c2ccc(C[C@H](NC(=O)c3c(F)cccc3Cl)C(=O)O)cc2)c(OC)c1,182 to 184 °C
19,CN(c1cccc2cc(-c3nc(CCC(=O)O)cs3)[nH]c12)S(=O)(=O)c1cccs1,200 to 201 °C
20,Cc1cccc(C)c1NC(=O)c1ccc(CN2C(=O)C3(COc4cc5c(cc43)CCO5)c3ccccc32)cc1 (stereo not drawn),> 250 °C
21,CCn1ncc2c(NCc3ccc(OC)c(OC)c3)c3ccccc3nc21,169 to 171 °C
22,CC(C)S(=O)(=O)c1ccc2c(c1)nc(CC(C)(C)C)n2CCN(C)C,116 °C
23,COc1ccc(C2=NN(CCCCCCNCC(O)c3ccc(N)c(C#N)c3)C(=O)C3CCCCC23)cc1OC (stereo not drawn),101 to 103 °C
